# Test results as given in patent US11267800B2, “Cyclohexyl acid triazole azines as LPA antagonists” (BRISTOL-MYERS SQUIBB COMPANY, priority 2017, dated 2022).
# pIC50: −log10 of the molar value.
# Biological target: T1, human LPA1 (Homo sapiens, UniProt Q92633)
# T1 construct: expressed in transfected cells; host or cells: Chinese hamster ovary (CHO) cells
# Assay: LPA1 functional antagonist assay (calcium flux)
# Type: cell-based
# Settings: CHO cells overexpressing human LPA1; inhibition of calcium flux induced by 10 nM LPA; read-out: hLPA1 IC50
# Procedure, shortened: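 IC50 values come from 4-parameter logistic fits and mark 50% block of the calcium flux evoked by 10 nM LPA. Human LPA1-overexpressing CHO cells were calcium-dye loaded at 37 °C, then given test compound (0.08 nM–5 μM, 0.5% DMSO, HEPES-buffered HBSS with 0.1% fatty-acid-free BSA) for 20 min at room temperature before agonist.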
# T1 sequence (Q92633 whole entry): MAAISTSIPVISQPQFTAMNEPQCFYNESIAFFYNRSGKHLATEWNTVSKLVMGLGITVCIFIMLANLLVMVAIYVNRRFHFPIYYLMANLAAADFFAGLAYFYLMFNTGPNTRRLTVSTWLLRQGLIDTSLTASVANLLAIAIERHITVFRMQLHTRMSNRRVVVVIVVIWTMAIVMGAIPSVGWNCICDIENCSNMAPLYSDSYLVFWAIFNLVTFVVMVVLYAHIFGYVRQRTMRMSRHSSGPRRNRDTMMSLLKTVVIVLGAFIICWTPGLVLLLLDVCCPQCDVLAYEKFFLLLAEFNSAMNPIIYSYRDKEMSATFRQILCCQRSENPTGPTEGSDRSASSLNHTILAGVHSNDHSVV
row,Compound,pIC50
1,"Cc1nc(-c2nnn(C)c2Nc2nccc(C(C)C)n2)ccc1O[C@H]1CCC[C@H](C(=O)O)C1 [Example 241, (1S,3S)-3-((6-(5-((4-isopropyl-pyrimidin-2-yl)amino)-1-methyl-1H-1,2,3-triazol-4-yl)-2-methylpyridin-3-yl)oxy)cyclohexane-1-carboxylic acid]",7.18
2,"CCCOc1cccc(Nc2c(-c3ccc(O[C@H]4CCC[C@H](C(=O)O)C4)c(C)n3)nnn2C)n1 [Example 242, (1S,3S)-3-((2-methyl-6-(1-methyl-5-((6-propoxypyridin-2-yl)amino)-1H-1,2,3-triazol-4-yl)pyridin-3-yl)oxy) cyclohexane-1-carboxylic acid]",7.96
3,"Cn1nnc(-c2ccc(O[C@H]3CCC[C@H](C(=O)O)C3)cn2)c1Nc1nccc(OCC2CC2)n1 [Example 243, (1S,3S)-3-((6-(5-((4-(cyclopropyl-methoxy)pyrimidin-2-yl)amino)-1-methyl-1H-1,2,3-triazol-4-yl)pyridin-3-yl)oxy)cyclohexane-1-carboxylic acid]",6.91
4,"CCCc1cccc(Nc2c(-c3ccc(O[C@H]4CCC[C@H](C(=O)O)C4)cn3)nnn2C)n1 [Example 244, (1S,3S)-3-((6-(1-methyl-5-((6-propylpyridin-2-yl)amino)-1H-1,2,3-triazol-4-yl)pyridin-3-yl)oxy) cyclohexane-1-carboxylic acid]",7.37
5,"CCCCc1cccc(Nc2c(-c3ccc(O[C@H]4CCC[C@H](C(=O)O)C4)cn3)nnn2C)n1 [Example 245, (1S,3S)-3-((6-(5-((6-butylpyridin-2-yl)amino)-1-methyl-1H-1,2,3-triazol-4-yl)pyridin-3-yl)oxy)cyclohexane-1-carboxylic acid]",7.49
6,"CCCOc1ccnc(Nc2c(-c3ccc(O[C@H]4CCC[C@H](C(=O)O)C4)cn3)nnn2C)n1 [Example 246, (1S,3S)-3-((6-(1-methyl-5-((4-propoxypyrimidin-2-yl)amino)-1H-1,2,3-triazol-4-yl)pyridin-3-yl)oxy) cyclohexane-1-carboxylic acid]",6.65
7,"CCCc1ccnc(Nc2c(-c3ccc(O[C@H]4CCC[C@H](C(=O)O)C4)cn3)nnn2C)n1 [Example 247, (1S,3S)-3-((6-(1-methyl-5-((4-propylpyrimidin-2-yl)amino)-1H-1,2,3-triazol-4-yl)pyridin-3-yl)oxy) cyclohexane-1-carboxylic acid]",6.50
8,"CCOc1cccc(Nc2c(-c3ccc(O[C@H]4CCC[C@H](C(=O)O)C4)cn3)nnn2C)n1 [Example 248, (1S,3S)-3-((6-(5-((6-ethoxypyridin-2-yl)amino)-1-methyl-1H-1,2,3-triazol-4-yl)pyridin-3-yl)oxy)cyclohexane-1-carboxylic acid]",6.95
9,"Cc1nc(-c2nnn(C)c2COc2ncc(F)c(NC(C)C)n2)ccc1O[C@H]1CCC[C@H](C(=O)O)C1 [Example 252, (1S,3S)-3-((6-(5-(((5-fluoro-4-(isopropylamino)pyrimidin-2-yl)oxy)methyl)-1-methyl-1H-1,2,3-triazol-4-yl)-2-methylpyridin-3-yl)oxy)cyclohexane-1-carboxylic acid]",7.19
10,"Cc1nc(-c2nnn(C)c2CN(C)c2nccc(OC3CC3)n2)ccc1O[C@H]1CCC[C@H](C(=O)O)C1 [Example 253, (1S,3S)-3-((6-(5-(((4-cyclopropoxypyrimidin-2-yl)(methyl)amino)methyl)-1-methyl-1H-1,2,3-triazol-4-yl)-2-methylpyridin-3-yl)oxy)cyclohexane-1-carboxylic acid]",7.55
11,"Cc1nc(-c2nnn(C)c2COc2cccc(C(C)C)c2)ccc1O[C@H]1CCC[C@H](C(=O)O)C1 [Example 254, (1S,3S)-3-((6-(5-((3-isopropylphenoxy)methyl)-1-methyl-1H-1,2,3-triazol-4-yl)-2-methylpyridin-3-yl)oxy)cyclohexane-1-carboxylic acid]",8.23
12,"Cc1nc(-c2nnn(C)c2COc2cc(OC(F)F)ncn2)ccc1O[C@H]1CCC[C@H](C(=O)O)C1 [Example 255, (1S,3S)-3-((6-(5-(((6-(difluoromethoxy)pyrimidin-4-yl)oxy)methyl)-1-methyl-1H-1,2,3-triazol-4-yl)-2-methylpyridin-3-yl)oxy)cyclohexane-1-carboxylicacid]",7.89
13,"CCc1cc(OCc2c(-c3ccc(O[C@H]4CCC[C@H](C(=O)O)C4)c(C)n3)nnn2C)ncn1 [Example 256, (1S,3S)-3-((6-(5-(((6-ethylpyrimidin-4-yl)oxy)methyl)-1-methyl-1H-1,2,3-triazol-4-yl)-2-methylpyridin-3-yl)oxy)cyclohexane-1-carboxylic acid]",7.66
14,"CCc1cc(OCc2c(-c3ccc(O[C@H]4CCC[C@H](c5nnn[nH]5)C4)c(C)n3)nnn2C)ncn1 [Example 257, 4-((4-(5-(((1S,3S)-3-(1H-tetrazol-5-yl)cyclohexyl)oxy)-6-methylpyridin-2-yl)-1-methyl-1H-1,2,3-triazol-5-yl)methoxy)-6-ethylpyrimidine]",7.16
15,[2H]C([2H])([2H])C([2H])([2H])Oc1nccc(NCc2c(-c3ccc(O[C@H]4CCC[C@H](C(=O)O)C4)c(C)n3)nnn2C)n1 [Example 258],5.73
16,CCOc1ccnc(NCc2c(-c3cnc(O[C@H]4CCC[C@H](C(=O)O)C4)c(C)n3)nnn2C)n1 [Example 259],6.88
17,C=CCCc1ccnc(NCc2c(-c3ccc(O[C@H]4CCC[C@H](C(=O)O)C4)c(C)n3)nnn2C)n1 [Example 260],8.47
18,Cc1nc(-c2nnn(C)c2CNc2ccnc(OC3CC(F)(F)C3)n2)ccc1O[C@H]1CCC[C@H](C(=O)O)C1 [Example 261],6.91
19,Cc1nc(-c2nnn(C)c2CNc2nccc(OC3CC(F)(F)C3)n2)ccc1O[C@H]1CCC[C@H](C(=O)O)C1 [Example 262],7.30
20,CCCNc1nc(OCc2c(-c3ccc(O[C@H]4CCC[C@H](C(=O)O)C4)c(C)n3)nnn2C)ncc1F [Example 263],7.02
21,CCNc1nc(OCc2c(-c3ccc(O[C@H]4CCC[C@H](C(=O)O)C4)c(C)n3)nnn2C)ncc1F [Example 264],7.12
22,Cc1nc(-c2nnn(C)c2CNc2ncc(F)c(NCCOc3ccc(F)cc3)n2)ccc1O[C@H]1CCC[C@H](C(=O)O)C1 [Example 265],7.36
23,Cc1nc(-c2nnn(C)c2CNc2cccc(C(C)C)n2)ccc1O[C@H]1CCC[C@H](C(=O)O)C1 [Example 266],7.06
24,Cc1nc(-c2nnn(C)c2CNc2ccnc(C(C)C)n2)ccc1O[C@H]1CCC[C@H](C(=O)O)C1 [Example 267],6.56

row,Compound,pIC50
1,CCOc1cccc(OCc2c(-c3ccc(O[C@H]4CCC[C@H](C(=O)O)C4)c(C)n3)nnn2C)c1 [Example 268],7.29
2,Cc1nc(-c2nnn(C)c2CN(C)c2nccc(OCC(C)F)n2)ccc1O[C@H]1CCC[C@H](C(=O)O)C1 (stereo partly drawn) [Example 269],7.35
3,CCOc1ccnc(OCc2c(-c3ccc(O[C@H]4CCC[C@H](C(=O)O)C4)c(C)n3)nnn2C)c1 [Example 270],8.28
4,CCOc1ccnc(N(C)Cc2c(-c3ccc(O[C@H]4CCC[C@H](C(=O)O)C4)c(C)n3)nnn2C)n1 [Example 271],7.80
5,CCOc1cc(NCc2c(-c3ccc(O[C@H]4CCC[C@H](C(=O)O)C4)c(C)n3)nnn2C)ncn1 [Example 272],6.79
6,CCOc1cc(OCc2c(-c3ccc(O[C@H]4CCC[C@H](C(=O)O)C4)c(C)n3)nnn2C)ncn1 [Example 273],7.89
7,Cc1nc(-c2nnn(C)c2COc2cc(OC3CC3)ncn2)ccc1O[C@H]1CCC[C@H](C(=O)O)C1 [Example 274],7.59
8,Cc1nc(-c2nnn(C)c2COc2cc(C3CC3)ncn2)ccc1O[C@H]1CCC[C@H](C(=O)O)C1 [Example 275],7.82
9,Cc1nc(-c2nnn(C)c2COc2cc(OC3CC3)ccn2)ccc1O[C@H]1CCC[C@H](C(=O)O)C1 [Example 276],8.06
10,Cc1nc(-c2nnn(C)c2COc2cc(C(C)C)ncn2)ccc1O[C@H]1CCC[C@H](C(=O)O)C1 [Example 277],7.62
11,COc1cc(OCc2c(-c3ccc(O[C@H]4CCC[C@H](C(=O)O)C4)c(C)n3)nnn2C)nc(OC)n1 [Example 279],6.85
12,CCc1ccnc(OCc2c(-c3ccc(O[C@H]4CCC[C@H](C(=O)O)C4)c(C)n3)nnn2C)c1 [Example 280],7.82
13,COc1ccnc(OCc2c(-c3ccc(O[C@H]4CCC[C@H](C(=O)O)C4)c(C)n3)nnn2C)c1 [Example 281],6.44
14,Cc1nc(-c2nnn(C)c2COc2ccnc(C3CC3)n2)ccc1O[C@H]1CCC[C@H](C(=O)O)C1 [Example 282],7.43
15,Cc1nc(-c2nnn(C)c2COc2cc(C3CC3)ccn2)ccc1O[C@H]1CCC[C@H](C(=O)O)C1 [Example 283],8.06
16,CCOc1cnnc(OCc2c(-c3ccc(O[C@H]4CCC[C@H](C(=O)O)C4)c(C)n3)nnn2C)c1 [Example 284],6.83
17,COCCCOc1cc(OCc2c(-c3ccc(O[C@H]4CCC[C@H](C(=O)O)C4)c(C)n3)nnn2C)ncn1 [Example 285],7.21
18,Cc1nc(-c2nnn(C)c2COc2cc(C(C)(C)C)ncn2)ccc1O[C@H]1CCC[C@H](C(=O)O)C1 [Example 286],6.87
19,Cc1nc(-c2nnn(C)c2COc2ccnc(C(C)C)n2)ccc1O[C@H]1CCC[C@H](C(=O)O)C1 [Example 287],7.39
20,Cc1nc(-c2nnn(C)c2COc2cc(C(F)(F)F)cc(C#N)n2)ccc1O[C@H]1CCC[C@H](C(=O)O)C1 [Example 288],6.51
21,Cc1nc(-c2nnn(C)c2COc2cc(OC(C)C)ncn2)ccc1O[C@H]1CCC[C@H](C(=O)O)C1 [Example 290],7.52
22,COc1ncnc(OCc2c(-c3ccc(O[C@H]4CCC[C@H](C(=O)O)C4)c(C)n3)nnn2C)c1C [Example 291],5.48
23,Cc1nc(-c2nnn(C)c2COc2ncnc(OC3CC3)c2C)ccc1O[C@H]1CCC[C@H](C(=O)O)C1 [Example 292],6.41
24,CCc1ncnc(OCc2c(-c3ccc(O[C@H]4CCC[C@H](C(=O)O)C4)c(C)n3)nnn2C)c1C [Example 293],7.11
